Measured values: patent publication US8932626B2, “Felbinac-containing transdermally absorbable preparation” (Teikoku Seiyaku Co., Ltd., priority 2009, dated 2015)

What was measured:
[1] = background art statement; cited from earlier work
[2] = In vitro rat skin permeability test (Test Example 1)
Experimental: The rat abdominal skin was exfoliated, the dermis side of the skin was directed to a side of a receptor layer, and its inside was filled with phosphate buffered saline. Water kept at 37° C. was circulated in a water jacket.

Row | SMILES | solubility in various solvents [1] | releasing of ketoprofen (permeated amount through excised rat skin) ([2]; Comparative Study (2), FIG. 3, patch with ketoprofen and lidocaine (Comparative Example 4) versus only ketoprofen (Comparative Example 3)) | releasing effect of the anti-inflammatory analgesic obtained by formulating lidocaine ([2]; summary of Comparative Studies (1) to (3))
1 | O=C(O)Cc1ccc(-c2ccccc2)cc1 [Felbinac] | very low | – | –
2 | CC(C(=O)O)c1cccc(C(=O)c2ccccc2)c1 (stereo not drawn) [ketoprofen] | – | inhibited significantly | not observed
